Measurements: patent US20160129070A1, “Glutathione Disulfide Compositions and Related Methods for the Treatment of Cancer” (South Dakota Board of Regents, priority 2014, published 2016)

System: B16-F10 cells lung metastasis
Assay: Murine lung metastasis assay, B16-F10 cells injected through a tail vein
Assay type: in vivo, mice
Details: no pretreatment of cells; 50 mg/kg i.p. daily for 5 days; day 21
From the text: Mice were housed four in a cage and received food and water ad libitum. All mice were used at approximately 7-10 weeks of age and given at least one week break after arrival. All experimental protocols were approved by the Institutional Animal Care and Use Committee. Procedures for murine lung metastasis assays reported previously were followed with minor modification [Bezault, J., Bhimani, R., Wiprovnick, J., and Furmanski, P. (1994) Cancer Res 54, 2310-2312; Kalland, T. (1986) Cancer Res 46, 3018-3022; Schultz, R. M., Silberman, S., Persky, B., Bajkowski, A. S., and Carmichael, D. F. (1988) Cancer Res 48, 5539-5545]. Mice were divided into 7 mice per group for treatment. B16-F10 cells were grown and maintained as monolayers in RPMI 1640 medium supplemented with 10% FBS and 1% penicillin/streptomycin in 5% CO2 at 37° C. The cells were then subjected to FBS starvation in RPMI 1640 medium without FBS for 24 h. Cells were harvested through trypsinization and adjusted to a density of […] with serum free medium. […] The weight of mice was recorded daily. […] Tumor nodules on lung surface were counted under a magnifier.
FIG. 5 presents the representative photographs of the lungs dissected from mice with different treatments. […] The effect was further confirmed by the metastatic tumors counted under a magnifier (Table 3). […]

## CN(C)/N=N/c1[nH]cnc1C(N)=O [Dacarbazine]
  Number of metastatic tumors in murine lungs, Average: 0.8 ± 2.0
